In PMC8962522, “Direct interaction of TrkA/CD44v3 is essential for NGF-promoted aggressiveness of breast cancer cells” (Journal of Experimental & Clinical Cancer Research : CR, 2022):

Test system: CD44v6 in MDA-MB-231 cells
Assay: Flow cytometry, plasma membrane CD44v6
Assay type: cell-based
Conditions: MDA-MB-231, flow cytometry
Excerpt: The CD44v3- and CD44v6-containing isoforms expressing respectively exon 8 and 11(Fig. 1A) can interact with growth factor receptors. Using COS-7 cells with low CD44 and TrkA expression (Supplementary Fig. 1A-D), we differentially expressed TrkA and CD44s or a CD44 variant, either CD44v3 or CD44v6 (Fig. 1B, supplementary Fig. 2). […] Additionally, we evaluated the expression of TrkA and CD44v3 at the membrane level or in cells by immunofluorescence in MDA-MB-231 cells.
Supplementary file 13046_2022_2314_MOESM3_ESM.pdf: Additional file 3: Supplementary Figure 1. Validation of the ectopic expression of CD44 and/or TrkA in COS-7 cells. The expression of all CD44 isoforms (A), CD44 variant 3 (B), CD44 variant 6 (C) and TrkA ([…]; D) was evaluated by RT–qPCR (normalized using PUM-1). No expression of CD44, CD44 variants [3 or 6] or TrkA was detected in COS-7 cells (A-D) compared with that in cells transfected with the expression plasmid carrying each protein. […] Quantification of the PLA results was performed using ImageJ software (30 randomly chosen fields per condition of three different experiments). […] CD44v3 and CD44v6 levels at the plasma membrane were assessed by flow cytometry (A-D). The plasma membrane and total TrkA and CD44v3 levels were also quantified by confocal microscopy (E-H). […] The CD44v3/NGF interaction was evaluated using microscale thermophoresis (MST). […]

Substance: NGF: recombinant human β-NGF (Alomone Labs, Israel)
- increase of plasma membrane CD44v6 (CD44v6-APC, histogram with No stim., NGF (5 min), NGF (30 min)): 6%
- plasma membrane level of CD44v6 (in words) (NGF stimulation): increased the plasma membrane level of CD44v3 but not CD44v6
